Assay results as given in patent US10398720B2, “Compound of the avermectin family or of the milbemycin family for the treatment and/or prevention of atopic dermatitis” (GALDERMA SA, priority 2013, dated 2019).

Test system: Der f-induced AD mouse model
Assay: Dermatophagoides farinae (Der f)-induced atopic dermatitis (AD)-like mouse model, topical route
Format: in vivo, Balb/c mice
Conditions: for cytokine concentration / production (IL-10, IL-13, IL-17, IL-4, IL-5, IFNg; FIG. 5): 0.1% ivermectin; for inflammatory response induced by Der f application: topical daily day 19 to day 36, solutions in acetone, ivermectin 0.003-0.1%; for ear edema (ear thickness, FIG. 1): topical daily day 19 to day 36
Protocol: 1.1. […] Der f has been purchased from Greer Laboratories and a Der f solution has been prepared at 12.5 mg/ml in 70% DMSO in MilliQ water. […] Balb/c mice strain has been used for the study. These animals have been obtained from controlled breeding and were specific pathogen free. The animals have been provided by Janvier SAS, France. AD-like lesions have been induced once a week by topical application of 20 μl of Der f solution on the right ear for 5 weeks at […], day 29 and day 36. Mice have been daily treated from day 19 to day 36 with the different solutions administrated by the topical route. Measurement of ear thickness have been monitored before and 24 hours after each allergen application. After day 19, ears have been daily measured before compound application. Blood samples have been collected into appropriate vials under isoflurane anaesthesia for further analysis (IgE). Mice have been then immediately euthanized. After mouse euthanasia, the right ear has been collected and has been washed in ethanol 70% and has been rinsed in PBS. Three skin biopsies have then been collected for cytokines profiles, eosinophil peroxidase (EPO) quantification and histological slides in order to quantify the mastocytes and in order to measure the epidermis thickness.

[1] = histological slides, 0.05% triamcinolone acetonide, ivermectin 0.003, 0.01, 0.03 and 0.1%
[2] = right ear skin biopsy, 0.05% triamcinolone acetonide, 0.1% tacrolimus
[3] = 0.05% triamcinolone acetonide, 0.1% tacrolimus
[4] = 0.05% triamcinolone acetonide, 0.1% tacrolimus, ivermectin 0.003, 0.01, 0.03 and 0.1%

Row | Compound | IgE secretion (total seric IgE, FIG. 4) (blood sample, 0.05% triamcinolone acetonide, ivermectin 0.003, 0.01, 0.03 and 0.1%) | epidermal thickness (FIG. 2) [1] | mastocyte count (within the dermis, FIG. 6) [1] | dose response of the anti-inflammatory activity (ivermectin 0.003 to 0.1% topical) | anti-inflammatory response, higher concentrations (ivermectin 0.01, 0.03 and 0.1% topical, compared with 0.003%) | inflammatory response, compared with positive controls (ivermectin at 0.003% topical vs triamcinolone acetonide at 0.05% and tacrolimus at 0.1%) | EPO (eosinophil peroxidase, FIG. 3) (right ear skin biopsy, 0.05% triamcinolone acetonide, ivermectin 0.003, 0.01 and 0.03%) | cytokine concentration / production (IL-10, IL-13, IL-17, IL-4, IL-5, IFNg; FIG. 5) [2] | inflammatory response induced by Der f application [3] | ear edema (ear thickness, FIG. 1) [4] | interleukin IL-17 production (FIG. 5) (right ear skin biopsy, 0.1% tacrolimus)
1 | Ivermectin | significantly decreases | lessens | lessens | inverse dose response | less potent than the weakest concentration (0.003%) | to the same extent as triamcinolone acetonide at 0.05% and as tacrolimus at 0.1% | significantly decreases | significantly decreases | able to reduce | significantly decreases | 
2 | C=CC[C@@H]1/C=C(\C)C[C@H](C)C[C@H](OC)[C@H]2O[C@@](O)(C(=O)C(=O)N3CCCC[C@H]3C(=O)O[C@H](/C(C)=C/[C@@H]3CC[C@@H](O)[C@H](OC)C3)[C@H](C)[C@@H](O)CC1=O)[C@H](C)C[C@@H]2OC [tacrolimus] |  |  |  |  |  |  |  | totally reduces | completely inhibit | totally reduces | totally reduces
